For 53 molecules, IC50 and EC50 results are on record in patent US9493435B2, “IRE-1α inhibitors” (MannKing Corporation, priority 2009, dated 2016).

The target in test [1] is human IRE-1α (GST-IRE-1α) (Homo sapiens (Human), UniProt O75460). The test is described as follows: IRE-1α assay (cleavage of mini-XBP-1 mRNA stem-loop substrate). The class given is biochemical. The conditions noted are these: average IC50 for inhibition of IRE-1α in vitro. As for the experimental part:
A fusion protein comprising glutathione S transferase (GST) and human IRE-1α (GST-IRE-1α) obtained from a 500 ml baculovirus-infected insect cell culture can be used to measure IRE-1α activity in vitro. Five μl of a reaction mixture comprising 1× reaction buffer (5× reaction buffer is 100 mM Hepes pH 7.5, 250 mM KOAc, 2.5 mM MgCl2), 3 mM DTT, and 0.4% polyethylene glycol water is added to each well of 384 well plates. Twenty-five nanoliters of a 1 mM test compound solution are added to test wells. […] Negative control wells contain only reaction mixture and test compound. After spinning the plates at 1200 rpm for 30 seconds, 3 μl of an IRE-1α human mini-XBP-1 mRNA stem-loop substrate [NT] ID NO:1), labeled with the fluorescent dye Cy5 at the [NT] end, are added to each well of a control plate. The plates are again spun at 1200 rpm for 30 seconds. […] The plates are covered with lids and incubated for one hour at 30° C. The plates are then transferred to an […] microplate reader. Data is analyzed using data analysis software, and the percent activity of IRE-1α is calculated.

Test [2] concerns IRE-1α-mediated XBP-1 splicing in human myeloma MM.1s cells. In words: Cellular XBP-1 splicing assay in myeloma cells (RT-PCR). Type of test: cell-based. The following applies: Homo sapiens, MM1.S; average EC50, endogenous XBP-1 splicing in myeloma cells, DTT stress. On the procedure:
After an additional 45 minutes (2 hours total) with compound and DTT, the cells are harvested with TRIZOL® (a mono-phasic solution of phenol and guanidine isothiocyanate), and total RNA is prepared as directed by the manufacturer (Invitrogen). Human XBP-1 is amplified by RT-PCR with the following primers, which flank the 26 base unconventional intron excised by IRE-1α:
RT-PCR of unstressed (U) cells then generates the upper band. When cells are stressed (S) with the endoplasmic reticulum (ER) stressing agent DTT, IRE-1α is activated due to accumulating unfolded protein and the resulting RT-PCR product is 26 base pairs shorter.
Compounds which pass specificity assays are assayed for cellular EC50 using endogenous XBP-1 splicing in myeloma cells. XBP-1 is regulated through the excision of a 26 nucleotide intron from the XBP-1 mRNA by the highly specific endoribonuclease activity of IRE-1α. […] This splicing event is used to measure IRE-1α activity on XBP-1 mRNA in cells and tissues.
Briefly, compounds are incubated in the presence or absence of an ER stress agent (e.g., DTT), and the ratio of XBP-1u (unspliced) to XBP-1s (spliced) is quantified by RT-PCR.

Bounds are passed on as bounds.

Sequence of human IRE-1α (GST-IRE-1α) (O75460 19-977): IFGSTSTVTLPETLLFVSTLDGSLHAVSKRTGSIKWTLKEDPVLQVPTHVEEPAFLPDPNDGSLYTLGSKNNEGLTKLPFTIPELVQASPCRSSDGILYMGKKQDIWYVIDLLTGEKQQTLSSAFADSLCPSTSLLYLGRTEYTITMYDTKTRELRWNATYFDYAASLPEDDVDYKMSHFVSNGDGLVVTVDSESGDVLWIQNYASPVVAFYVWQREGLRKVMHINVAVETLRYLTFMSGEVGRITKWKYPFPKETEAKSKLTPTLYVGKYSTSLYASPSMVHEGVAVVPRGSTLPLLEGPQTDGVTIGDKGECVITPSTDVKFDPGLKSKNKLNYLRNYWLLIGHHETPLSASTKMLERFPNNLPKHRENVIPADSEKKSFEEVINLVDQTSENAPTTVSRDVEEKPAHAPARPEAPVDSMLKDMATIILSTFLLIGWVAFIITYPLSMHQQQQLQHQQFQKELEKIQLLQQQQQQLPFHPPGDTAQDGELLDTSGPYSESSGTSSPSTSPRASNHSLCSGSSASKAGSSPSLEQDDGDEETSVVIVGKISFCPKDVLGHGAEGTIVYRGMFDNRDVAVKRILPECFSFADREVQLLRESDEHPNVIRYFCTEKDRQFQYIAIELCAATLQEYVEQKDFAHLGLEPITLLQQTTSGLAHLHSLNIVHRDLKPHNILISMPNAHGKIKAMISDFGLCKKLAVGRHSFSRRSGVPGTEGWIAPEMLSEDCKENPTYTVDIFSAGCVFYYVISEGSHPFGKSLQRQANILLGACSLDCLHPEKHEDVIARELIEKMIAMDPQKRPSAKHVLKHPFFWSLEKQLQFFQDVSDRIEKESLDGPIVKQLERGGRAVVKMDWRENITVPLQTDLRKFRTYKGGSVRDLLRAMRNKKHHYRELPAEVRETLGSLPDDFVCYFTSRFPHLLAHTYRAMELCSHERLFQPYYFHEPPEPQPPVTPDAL

Take `O=Cc1c(O)ccc2cc(OCC(=O)O)ccc12` [Compound 178]: in test [1], the IC50 (in general, the concentration at which inhibition is half-maximal) was over 1 µM. In addition, in test [2], the EC50 (usually the concentration that produces a half-maximal response) was over 10 µM.
The like results for `COCCNC(=O)c1sc(-c2ccc3c(C=O)c(O)ccc3c2)nc1C` [Compound 141] were, in that order, under 0.1 µM and under 10 µM.
On the same counts, the results for `O=Cc1c(O)ccc2cc(N3CCN(Cc4ccccc4)CC3)ccc12` [Compound 95] are over 1 µM and over 10 µM.
The like results for `Cc1cc(C(=O)N2CCN(C)CC2)sc1-c1ccc2c(C=O)c(O)ccc2c1` [Compound 34] were, in that order, under 0.1 µM and under 10 µM.
Consider `O=Cc1c(O)ccc2cc(N3CCC(NCc4ccccc4)CC3)ccc12` [Compound 97], for which the IC50 in test [1] is under 1 µM. The EC50 in test [2] was over 10 µM.
The like results for `O=Cc1c(O)ccc2cc(-c3ccc(C(=O)N4CCOCC4)cc3Cl)ccc12` [Compound 29] were, in that order, under 1 µM and over 10 µM.
On the same counts, the results for `O=Cc1c(O)ccc2cc(-c3ccc(C(=O)NCCN4CCOCC4)s3)ccc12` [Compound 36] are under 0.1 µM and under 10 µM.
As for `CN(C)CCNC(=O)c1ccc(-c2ccc3c(C=O)c(O)ccc3c2)s1` [Compound 72], the IC50 in test [1] was under 0.1 µM. In test [2], this molecule yielded a concentration giving a half-maximal response (EC50) of under 10 µM.
On the same counts, the results for `CN1CCN(C(=O)c2ccc(-c3ccc4c(C=O)c(O)ccc4c3)cc2)CC1` [Compound 5] are under 0.1 µM and under 10 µM.
The like results for `CN1CCN(C2CCN(c3ccc4ccc(O)c(C=O)c4c3)CC2)CC1` [Compound 89] were, in that order, over 1 µM and over 10 µM.
The like results for `O=Cc1c(O)ccc2cc(-c3ccc(C(=O)NCCCN4CCOCC4)s3)ccc12` [Compound 37] were, in that order, under 0.1 µM and under 10 µM.
For the molecule `O=Cc1c(O)ccc2cc(-c3ccc(C(=O)NC4CCCNC4)cc3)ccc12` (stereo not shown) [Compound 49], in test [1], the IC50 is under 0.1 µM. The molecule further returned an EC50 in test [2] of under 10 µM.
`Cc1nc(-c2ccc3c(C=O)c(O)ccc3c2)sc1C(=O)N1CCCC1` [Compound 140] came in with an IC50 in test [1] of under 0.1 µM. Also, the EC50 in test [2] was under 10 µM.
As to `CNC(=O)c1cccc(-c2ccc3c(C=O)c(O)ccc3c2)n1` [Compound 13], the IC50 in test [1] was under 0.1 µM. The EC50 in test [2] is over 10 µM.
On the same counts, the results for `O=Cc1c(O)ccc2cc(-c3ccc(C(=O)NC4CCNCC4)nc3)ccc12` [Compound 151] are under 1 µM and under 10 µM.
On the same counts, the results for `CN1CCN(C(=O)c2cnc(-c3ccc4c(C=O)c(O)ccc4c3)s2)CC1` [Compound 61] are under 0.1 µM and under 10 µM.
Consider `O=Cc1c(O)ccc2cc(-c3ccc(C(=O)NCCN4CCOCC4)nc3)ccc12` [Compound 126], for which the half-maximal inhibitory concentration (IC50) in test [1] was under 0.1 µM. In addition, in test [2], the EC50 was under 10 µM.
On the same counts, the results for `O=Cc1c(O)ccc2cc(CCC(=O)O)ccc12` [Compound 39] are under 1 µM and over 10 µM.
On the same counts, the results for `Cc1cc(C(=O)N(C)C)sc1-c1ccc2c(C=O)c(O)ccc2c1` [Compound 33] are under 0.1 µM and under 10 µM.
On the same counts, the results for `CN(C)C(=O)C1CCN(c2ccc3c(C=O)c(O)ccc3c2)C1` (stereo not shown) [Compound 128] are over 1 µM and over 10 µM.
In test [1], `O=Cc1c(O)ccc2ccc(N3CCC(N4CCOCC4)CC3)cc12` [Compound 90] displayed an IC50 of over 1 µM. The molecule also gave an EC50 in test [2] of under 10 µM.
On the same counts, the results for `O=Cc1c(O)ccc2cc(N3CCC(NCc4cccnc4)CC3)ccc12` [Compound 116] are over 1 µM and under 10 µM.
On the same counts, the results for `CSc1ncc(-c2ccc3c(C=O)c(O)ccc3c2)cn1` [Compound 64] are over 1 µM and over 10 µM.
For `CS(=O)(=O)NC1CCCN(c2ccc3c(C=O)c(O)ccc3c2)C1` (stereo not shown) [Compound 94], in test [1], the IC50 was over 1 µM. This molecule also came in with a concentration giving a half-maximal response (EC50) in test [2] of over 10 µM.
The like results for `CN1CCCC(NC(=O)c2ccc(-c3ccc4c(C=O)c(O)ccc4c3)s2)C1` (stereo not shown) [Compound 78] were, in that order, under 0.1 µM and under 10 µM.
The molecule `O=Cc1c(O)ccc2cc(N3CCC(N4CCOCC4)C3)ccc12` (stereo not shown) [Compound 107] came in with an IC50 in test [1] of over 1 µM. In addition, in test [2], the EC50 is over 10 µM.
On the same counts, the results for `O=Cc1c(O)ccc2cc(/C=C/C(=O)N3CCOCC3)ccc12` [Compound 32] are under 0.1 µM and under 10 µM.
On the same counts, the results for `CN1CCN(C(=O)c2cc(-c3ccc4c(C=O)c(O)ccc4c3)ccn2)CC1` [Compound 66] are under 1 µM and under 10 µM.
On the same counts, the results for `O=Cc1c(O)ccc2cc(N3CCN(c4ccccn4)CC3)ccc12` [Compound 81] are over 1 µM and over 10 µM.
With `NCCN1CCN(C(=O)c2ccc(-c3ccc4c(C=O)c(O)ccc4c3)s2)CC1` [Compound 55], in test [1], the IC50 is under 1 µM. Also, the EC50 in test [2] was under 10 µM.
On the same counts, the results for `CNC1CCN(c2ccc3c(C=O)c(O)ccc3c2)C1` (stereo not shown) [Compound 122] are over 1 µM and under 10 µM.
In test [1], `CC(=O)NC1CCN(c2ccc3c(C=O)c(O)ccc3c2)CC1` [Compound 84] showed an IC50 of under 1 µM. This molecule also yielded an EC50 in test [2] of over 10 µM.
On the same counts, the results for `CC(=O)NC1CCN(c2ccc3ccc(O)c(C=O)c3c2)C1` (stereo not shown) [Compound 156] are over 1 µM and over 10 µM.
The like results for `CCCNC(=O)c1cccc(-c2ccc3c(C=O)c(O)ccc3c2)n1` [Compound 16] were, in that order, under 0.1 µM and 10 µM.
Regarding `NCCOCCOCCNC(=O)c1ccc(-c2ccc3c(C=O)c(O)ccc3c2)s1` [Compound 45], the half-inhibitory concentration (IC50) in test [1] is under 1 µM. In addition, in test [2], the EC50 was under 10 µM.
On the same counts, the results for `CN1CCN(C(=O)c2cncc(-c3ccc4c(C=O)c(O)ccc4c3)c2)CC1` [Compound 67] are under 1 µM and under 10 µM.
`N#Cc1ccc(Oc2ccc3c(C=O)c(O)ccc3c2)cc1` [Compound 181] had an IC50 in test [1] of under 1 µM. The molecule also came in with an EC50 in test [2] of under 10 µM.
On the same counts, the results for `Cc1nc(-c2ccc3c(C=O)c(O)ccc3c2)sc1C(=O)N1CCOCC1` [Compound 109] are under 0.1 µM and under 10 µM.
On to `O=Cc1c(O)ccc2ccc(N3CCCC3)cc12` [Compound 104], for which the IC50 in test [1] was over 1 µM. The EC50 in test [2] is over 10 µM.
The molecule `Cc1cc(C(=O)N2CCOCC2)sc1-c1ccc2c(C=O)c(O)ccc2c1` [Compound 25] yielded an IC50 in test [1] of under 0.1 µM. The molecule also registered an EC50 in test [2] of over 10 µM.
On the same counts, the results for `CN1CCN(C(=O)c2ccc(-c3ccc4c(C=O)c(O)ccc4c3)nc2)CC1` [Compound 57] are under 1 µM and under 10 µM.
On the same counts, the results for `O=Cc1c(O)ccc2cc(-c3ccc(C(=O)N4CCNCC4)s3)ccc12` [Compound 53] are under 1 µM and under 10 µM.
On the same counts, the results for `O=Cc1c(O)ccc2cc(-c3ccc(C(=O)NCCN4CCOCC4)cc3)ccc12` [Compound 139] are under 0.1 µM and under 10 µM.
For the molecule `COCCNC(=O)c1ccc(-c2ccc3c(C=O)c(O)ccc3c2)s1` [Compound 15], the IC50 in test [1] is under 1 µM. In test [2], this molecule had an EC50 of over 10 µM.
As to `O=Cc1c(O)ccc2cc(/C=C/C(=O)O)ccc12` [Compound 23], in test [1], the IC50 is under 1 µM. In test [2], this molecule registered an EC50 of 10 µM.
For `CNC(=O)c1ccc(-c2ccc3c(C=O)c(O)ccc3c2)s1` [Compound 11], in test [1], the IC50 is under 1 µM. Further, in test [2], the EC50 turned out to be 10 µM.
On the same counts, the results for `O=Cc1c(O)ccc2cc(N3CCC(NCc4ccccn4)CC3)ccc12` [Compound 114] are under 1 µM and over 10 µM.
The like results for `O=Cc1c(O)ccc2cc(-c3ccc(C(=O)NCC4CCCCN4)o3)ccc12` (stereo not shown) [Compound 77] were, in that order, over 1 µM and under 10 µM.
On the same counts, the results for `CN(C)C(=O)c1ccc(-c2ccc3c(C=O)c(O)ccc3c2)o1` [Compound 35] are under 0.1 µM and under 10 µM.
With `O=Cc1c(O)ccc2ccc(N3CCC(N4CCCCC4)C3)cc12` (stereo not shown) [Compound 137], the half-maximal inhibitory concentration (IC50) in test [1] was over 1 µM. Besides, in test [2], the concentration giving a half-maximal response (EC50) was over 10 µM.
Take `CN(C1CCCN(c2ccc3c(C=O)c(O)ccc3c2)C1)S(C)(=O)=O` (stereo not shown) [Compound 123]: the IC50 in test [1] was under 1 µM.
Same read-out and setting: then `CN1CCN(C(=O)c2ccc(Cl)c(-c3ccc4c(C=O)c(O)ccc4c3)c2)CC1` [Compound 30], with under 1 µM; and `CS(=O)(=O)NC1CCN(c2ccc3c(C=O)c(O)ccc3c2)CC1` [Compound 175], with over 1 µM.
